Results published in patent US20250325710A1, “Advanced In Vivo Platform to Study Human Neural Maturation and Circuit Integration” (priority 2022, published 2025).

Columns and labels:
[1] = test system: blue light-evoked EPSCs in rat pyramidal cortical neurons; assay type: cell-based
[2] = target: element-binding protein (CBP) (Homo sapiens, UniProt Q92793); settings: cited from earlier work
[3] = test system: Wnt processing and secretion; settings: cell-free assay; cited from earlier work
[4] = test system: Wnt-stimulated cellular responses; settings: cited from earlier work
PORCN [5] = settings: read-out: EC50, Porcn inhibitor; cited from earlier work
Wnt signaling = settings: TM3 cells; cited from earlier work
AMPA receptor [6] = assay: Whole-cell recordings of evoked EPSCs in t-hCS human neurons in acute thalamocortical slices; assay type: cell-based; settings: evoked by electrical stimulation of rat S1, internal capsule, white matter or t-hCS, or optogenetic activation of thalamic terminals; NBQX 10 μM
AMPA receptor [7] = assay: Whole-cell recordings of blue light-evoked EPSCs in rat pyramidal cortical neurons in acute brain slices (activation of t-hCS axons); assay type: cell-based; settings: evoked by blue light activation of t-hCS axons; NBQX 10 μM
Smo heptahelical domain = Smo heptahelical domain (Homo sapiens, UniProt Q99835); settings: cited from earlier work
Smo heptahelical domain, sequence (Q99835 28-787): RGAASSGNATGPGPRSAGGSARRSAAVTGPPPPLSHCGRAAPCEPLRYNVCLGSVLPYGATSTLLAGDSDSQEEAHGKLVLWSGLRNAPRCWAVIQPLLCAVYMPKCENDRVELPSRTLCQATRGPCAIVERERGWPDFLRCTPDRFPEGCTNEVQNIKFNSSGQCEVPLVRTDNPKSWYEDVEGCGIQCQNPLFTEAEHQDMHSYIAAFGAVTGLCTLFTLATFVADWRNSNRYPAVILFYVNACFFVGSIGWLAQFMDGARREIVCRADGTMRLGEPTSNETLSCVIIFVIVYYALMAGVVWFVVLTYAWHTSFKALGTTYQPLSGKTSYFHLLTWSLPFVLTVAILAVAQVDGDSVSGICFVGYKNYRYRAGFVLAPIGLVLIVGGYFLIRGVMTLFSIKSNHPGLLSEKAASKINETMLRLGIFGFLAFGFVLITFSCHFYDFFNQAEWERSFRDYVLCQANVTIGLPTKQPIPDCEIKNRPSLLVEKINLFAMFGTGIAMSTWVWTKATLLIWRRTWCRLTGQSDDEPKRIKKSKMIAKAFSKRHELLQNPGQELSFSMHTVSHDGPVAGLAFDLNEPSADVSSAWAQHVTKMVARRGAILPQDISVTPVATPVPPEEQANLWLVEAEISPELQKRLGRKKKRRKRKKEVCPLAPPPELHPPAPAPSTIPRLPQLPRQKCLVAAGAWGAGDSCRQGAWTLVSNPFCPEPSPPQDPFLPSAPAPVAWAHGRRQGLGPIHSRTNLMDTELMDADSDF

TNKS2 = target: T1, TNKS2 (Homo sapiens, UniProt Q9H2K2); settings: cited from earlier work
T1 sequence (Q9H2K2 1-1166): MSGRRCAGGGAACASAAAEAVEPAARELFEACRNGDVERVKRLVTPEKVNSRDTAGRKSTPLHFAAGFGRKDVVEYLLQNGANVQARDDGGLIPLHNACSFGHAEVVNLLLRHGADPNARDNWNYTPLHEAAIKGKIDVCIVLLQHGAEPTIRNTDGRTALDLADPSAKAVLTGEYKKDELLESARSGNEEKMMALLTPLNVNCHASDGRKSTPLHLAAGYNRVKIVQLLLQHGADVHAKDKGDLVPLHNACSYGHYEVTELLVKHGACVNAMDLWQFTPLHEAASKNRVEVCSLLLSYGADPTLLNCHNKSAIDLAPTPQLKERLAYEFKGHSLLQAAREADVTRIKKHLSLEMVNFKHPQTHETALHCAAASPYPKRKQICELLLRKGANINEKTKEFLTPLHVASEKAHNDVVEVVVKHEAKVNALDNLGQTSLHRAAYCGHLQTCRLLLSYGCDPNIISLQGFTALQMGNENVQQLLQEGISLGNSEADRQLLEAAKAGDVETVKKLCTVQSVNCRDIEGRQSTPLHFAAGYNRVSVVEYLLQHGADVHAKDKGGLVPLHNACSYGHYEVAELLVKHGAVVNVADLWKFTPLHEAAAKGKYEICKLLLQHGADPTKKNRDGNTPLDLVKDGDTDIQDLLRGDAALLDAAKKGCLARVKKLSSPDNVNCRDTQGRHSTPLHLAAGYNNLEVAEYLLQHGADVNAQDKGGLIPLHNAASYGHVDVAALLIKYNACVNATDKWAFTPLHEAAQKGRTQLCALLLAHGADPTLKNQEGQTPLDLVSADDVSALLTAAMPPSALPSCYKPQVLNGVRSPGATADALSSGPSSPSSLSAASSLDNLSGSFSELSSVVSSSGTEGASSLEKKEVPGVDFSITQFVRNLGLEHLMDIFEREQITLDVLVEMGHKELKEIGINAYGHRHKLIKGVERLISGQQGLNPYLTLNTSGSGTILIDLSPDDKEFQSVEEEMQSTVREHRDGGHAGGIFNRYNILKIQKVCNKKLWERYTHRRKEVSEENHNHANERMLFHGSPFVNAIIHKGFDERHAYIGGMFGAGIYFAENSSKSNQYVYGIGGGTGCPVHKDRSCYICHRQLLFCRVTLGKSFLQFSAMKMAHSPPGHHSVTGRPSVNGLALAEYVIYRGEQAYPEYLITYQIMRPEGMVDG

PORCN [8] = settings: HEK293 cells; read-out: IC50, Wnt3A-mediated activation of a multimerized TCF-binding site driving luciferase; cited from earlier work

element-binding protein (CBP), sequence (Q92793 whole entry): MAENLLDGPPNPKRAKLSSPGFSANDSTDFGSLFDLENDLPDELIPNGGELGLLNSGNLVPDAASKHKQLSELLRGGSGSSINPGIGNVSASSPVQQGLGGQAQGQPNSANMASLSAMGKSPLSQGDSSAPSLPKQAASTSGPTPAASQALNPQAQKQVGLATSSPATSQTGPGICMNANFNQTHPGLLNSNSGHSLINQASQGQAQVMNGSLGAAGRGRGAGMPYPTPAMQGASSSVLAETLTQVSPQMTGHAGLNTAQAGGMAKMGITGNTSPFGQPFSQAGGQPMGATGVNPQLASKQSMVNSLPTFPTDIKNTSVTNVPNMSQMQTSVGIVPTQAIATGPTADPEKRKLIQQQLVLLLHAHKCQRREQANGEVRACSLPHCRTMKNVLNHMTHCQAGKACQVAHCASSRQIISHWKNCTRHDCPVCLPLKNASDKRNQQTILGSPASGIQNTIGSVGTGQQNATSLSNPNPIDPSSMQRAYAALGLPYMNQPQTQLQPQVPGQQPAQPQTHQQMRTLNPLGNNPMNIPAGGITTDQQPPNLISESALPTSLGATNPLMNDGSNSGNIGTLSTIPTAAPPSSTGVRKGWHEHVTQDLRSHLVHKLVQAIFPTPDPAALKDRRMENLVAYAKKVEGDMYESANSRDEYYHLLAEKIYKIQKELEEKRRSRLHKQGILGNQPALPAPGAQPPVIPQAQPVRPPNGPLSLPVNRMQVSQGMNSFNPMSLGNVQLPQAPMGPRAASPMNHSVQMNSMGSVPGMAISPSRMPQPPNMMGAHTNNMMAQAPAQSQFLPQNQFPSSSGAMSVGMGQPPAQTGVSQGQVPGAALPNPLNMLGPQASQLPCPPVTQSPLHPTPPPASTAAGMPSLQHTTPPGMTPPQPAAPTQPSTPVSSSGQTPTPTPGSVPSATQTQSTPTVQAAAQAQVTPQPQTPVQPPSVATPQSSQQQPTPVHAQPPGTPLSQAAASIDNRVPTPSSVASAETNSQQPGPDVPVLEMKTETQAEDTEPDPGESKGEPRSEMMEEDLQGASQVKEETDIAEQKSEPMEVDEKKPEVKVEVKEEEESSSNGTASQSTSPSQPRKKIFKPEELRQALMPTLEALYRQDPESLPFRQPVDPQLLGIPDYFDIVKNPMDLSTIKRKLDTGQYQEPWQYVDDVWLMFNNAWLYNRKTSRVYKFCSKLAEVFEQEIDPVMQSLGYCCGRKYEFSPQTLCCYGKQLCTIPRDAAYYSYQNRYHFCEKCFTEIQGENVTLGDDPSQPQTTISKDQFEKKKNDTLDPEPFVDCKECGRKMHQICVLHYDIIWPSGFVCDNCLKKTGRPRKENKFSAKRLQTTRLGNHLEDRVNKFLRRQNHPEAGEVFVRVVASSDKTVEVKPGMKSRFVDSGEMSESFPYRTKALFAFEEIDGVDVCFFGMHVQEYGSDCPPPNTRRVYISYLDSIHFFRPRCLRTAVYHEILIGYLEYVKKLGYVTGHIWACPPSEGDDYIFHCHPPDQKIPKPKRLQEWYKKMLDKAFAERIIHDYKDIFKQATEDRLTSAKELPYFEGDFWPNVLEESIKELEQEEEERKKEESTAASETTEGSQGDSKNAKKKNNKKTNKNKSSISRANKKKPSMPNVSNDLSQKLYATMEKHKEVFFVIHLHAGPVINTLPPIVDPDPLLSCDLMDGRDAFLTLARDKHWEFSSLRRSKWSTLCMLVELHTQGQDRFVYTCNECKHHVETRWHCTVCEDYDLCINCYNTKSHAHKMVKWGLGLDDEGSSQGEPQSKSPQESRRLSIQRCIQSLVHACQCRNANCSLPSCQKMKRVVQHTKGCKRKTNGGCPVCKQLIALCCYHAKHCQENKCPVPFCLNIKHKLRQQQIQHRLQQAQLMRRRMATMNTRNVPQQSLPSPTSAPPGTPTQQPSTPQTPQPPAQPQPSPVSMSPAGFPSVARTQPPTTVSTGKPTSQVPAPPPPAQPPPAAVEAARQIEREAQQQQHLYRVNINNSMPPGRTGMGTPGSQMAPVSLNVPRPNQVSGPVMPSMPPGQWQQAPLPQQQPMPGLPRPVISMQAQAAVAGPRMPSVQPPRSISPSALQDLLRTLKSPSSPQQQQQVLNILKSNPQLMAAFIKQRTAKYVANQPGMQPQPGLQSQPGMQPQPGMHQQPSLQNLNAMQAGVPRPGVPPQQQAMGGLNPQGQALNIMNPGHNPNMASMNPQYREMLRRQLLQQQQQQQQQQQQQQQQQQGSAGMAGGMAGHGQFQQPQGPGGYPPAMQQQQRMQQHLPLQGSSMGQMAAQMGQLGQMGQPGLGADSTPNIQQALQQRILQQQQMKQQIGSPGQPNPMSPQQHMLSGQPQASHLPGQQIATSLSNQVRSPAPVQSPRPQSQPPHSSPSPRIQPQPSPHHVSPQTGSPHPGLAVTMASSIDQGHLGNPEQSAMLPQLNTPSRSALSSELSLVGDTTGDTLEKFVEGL

Nc1ccncc1 [4-AP, 4 Amino-Pyridine]
Effect on blue light-evoked responses in rat cortical neurons [1]: recovered

O=C1[C@H](Cc2ccc(O)cc2)N2C(=O)CCN(C(=O)NCc3ccccc3)[C@H]2CN1Cc1cccc2ccccc12 [ICG-001]
IC50 [2]: 3000 nM

Cc1ccc2nc(NC(=O)CSc3nc4c(c(=O)n3-c3ccccc3)SCC4)sc2c1 [IWP-2]
IC50 [3]: 27 nM | Effect against Wnt-stimulated cellular responses [4]: no effect

O=C(CSc1nc2c(c(=O)n1-c1ccccc1)SCC2)Nc1ccc(-c2ccccc2)cn1 [IWP-L6]
EC50 (PORCN [5]): 0.5 nM

Cc1cc(-c2ncc(CC(=O)Nc3ccc(-c4cnccn4)cn3)cc2C)ccn1 [LGK-974]
IC50 (Wnt signaling): 0.4 nM

NS(=O)(=O)c1cccc2c1c([N+](=O)[O-])cc1nc(O)c(O)nc12 [NBQX]
Effect on short latency EPSCs in human t-hCS neurons (AMPA receptor [6]): blocked | Effect on short-latency EPSCs in rat pyramidal cortical neurons (AMPA receptor [7]): blocked

CNC1CCC(N(Cc2cccc(-c3ccncc3)c2)C(=O)c2sc3ccccc3c2Cl)CC1 (centres unmarked) [SAG]
Kd (Smo heptahelical domain): 59 nM

COc1ccc(-n2c(SCCCN3C(=O)c4cccc5cccc(c45)C3=O)nnc2-c2ccncc2)cc1 [WIKI4]
IC50 (TNKS2): 15 nM

Cc1cc(-c2ccc(CC(=O)Nc3ccc(-c4cccnc4)cc3)cc2)ccn1 [Wnt-C59]
IC50 (PORCN [8]): 0.074 nM
